The results in this text go back to patent US20160287524A1, “PHARMACEUTICAL COMPOSITIONS COMPRISING AN ACTIVE AGENT” (GALENICUM HEALTH S.L., priority 2013, published 2016).

This series is described as follows: Dissolving the active agent in the capsule fill (glycerol monocaprylocaprate, BHT). It is filed as physicochemical. The note with it: 20-23° C., stirred. From the text: Another advantage of the process as herein disclosed is that it is highly reproducible and robust independently of the water content of the active agent. […] However, when the active agent has a water content higher than 0.05% measured by Karl Fischer titration, the components of the fill are completely dissolved at the same range of temperatures. Furthermore, the inventors have been able to establish an optimum range of working temperatures able to obtain a fill solution completely dissolved homogeneously with active agents with a water content higher than 0.05% w/w.
• Glycerol monocaprylocaprate was added to a stainless steel tank equipped with cooling jacket to keep it at a temperature of 20-23° C. It was stirred until completely dissolved. • Butylhydroxytoluene (BHT) was added to the tank and stirred until completely dissolved. • Finally dutasteride anhydrous was added to the tank. • The resulting solution was kept at a range of temperature of 20-23° C. […] Water content of the active agent and the range of temperatures were studied to avoid dissolution problems.

The structures appear in SMILES notation.

As for `C[C@]12C=CC(=O)N[C@@H]1CC[C@@H]1[C@@H]2CC[C@]2(C)[C@@H](C(=O)Nc3cc(C(F)(F)F)ccc3C(F)(F)F)CC[C@@H]12` [dutasteride anhydrous], the “dissolution of active agent in the fill solution” value is recorded as “not possible to obtain a completely dissolved solution”.
